Results reported in ChEMBL document CHEMBL1201862, “PubChem BioAssay data set” (2004).
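Growth conditions: 96-well plates. Treatment: test compound, 48 hours, 5 concentrations. Analysis: linear interpolation between bracketing concentrations; unreached endpoints set to highest concentration. The concentration for 50% growth inhibition is given as GI50.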 Calls of active or inactive are those of the source. Rule as the data show it: active = GI50 up to about 1.1 µM and inactive = higher.

Columns and labels:
Experiment in all cases: inhibition of tumour cell growth, NCI panel, 48 h
[1] = tested on: 786-0
[2] = tested on: A498
[3] = tested on: A549
[4] = tested on: ACHN
[5] = tested on: BT-549
[6] = tested on: CAKI-1
[7] = tested on: CCRF-CEM
[8] = tested on: COLO 205
[9] = tested on: DU-145
[10] = tested on: EKVX
[11] = tested on: HCC 2998
[12] = tested on: HCT-116
[13] = tested on: HCT-15
[14] = tested on: HL-60
[15] = tested on: HOP-62
[16] = tested on: HOP-92
[17] = tested on: HT-29
[18] = tested on: Hs-578T
[19] = tested on: IGROV-1
[20] = tested on: K562
[21] = tested on: KM12
[22] = tested on: LOX IMVI
[23] = tested on: M14
[24] = tested on: MCF7
[25] = tested on: MDA-MB-231
[26] = tested on: MDA-MB-435
[27] = tested on: MDA-N
[28] = tested on: MOLT-4
[29] = tested on: Malme-3M
[30] = tested on: NCI-H23
[31] = tested on: NCI-H460
[32] = tested on: NCI-H522
[33] = tested on: NCI/ADR-RES
[34] = tested on: OVCAR-3
[35] = tested on: OVCAR-4
[36] = tested on: OVCAR-5
[37] = tested on: OVCAR-8
[38] = tested on: PC-3
[39] = tested on: RPMI-8226
[40] = tested on: RXF 393
[41] = tested on: SF-268
[42] = tested on: SF-295
[43] = tested on: SF-539
[44] = tested on: SK-MEL-28
[45] = tested on: SK-MEL-2
[46] = tested on: SK-MEL-5
[47] = tested on: SK-OV-3
[48] = tested on: SN12C
[49] = tested on: SNB-19
[50] = tested on: SNB-75
[51] = tested on: SR
[52] = tested on: SW-620
[53] = tested on: T47D
[54] = tested on: TK-10
[55] = tested on: U-251
[56] = tested on: UACC-257
[57] = tested on: UACC-62
[58] = tested on: UO-31

Measured: GI50

Nc1ccc(-c2nc3cc(F)ccc3s2)cc1
17.6 µM: [13]
inactive: [1] > 85.3 µM | [2] 33.5 µM | [3] 87.7 µM | [4] 20.6 µM | [5] > 100 µM | [6] 27.7 µM | [7] > 45.6 µM | [8] 61 µM | [9] 30.5 µM | [10] 2 µM | [11] 26.3 µM | [12] > 69.8 µM | [14] 25.4 µM | [15] 18.3 µM | [16] 23.1 µM | [17] > 91 µM | [18] 37.7 µM | [19] 13 µM | [20] > 100 µM | [21] > 68.4 µM | [22] 45.1 µM | [23] 71.6 µM | [25] 22.5 µM | [26] > 100 µM | [27] > 100 µM | [28] > 82.2 µM | [29] > 100 µM | [30] 1.43 µM | [31] 7.98 µM | [32] 53.5 µM | [33] > 100 µM | [34] > 90.2 µM | [35] > 36.7 µM | [36] 26.4 µM | [37] > 95.9 µM | [38] 16.5 µM | [39] > 100 µM | [40] 32.3 µM | [41] 31 µM | [42] 25.5 µM | [43] > 66.1 µM | [44] > 100 µM | [45] 30.8 µM | [46] 61.4 µM | [47] > 94.2 µM | [48] > 100 µM | [49] > 100 µM | [50] 11.2 µM | [51] 5.96 µM | [52] > 100 µM | [54] 30.5 µM | [55] 39.4 µM | [56] > 43.4 µM | [57] 28.6 µM | [58] > 60 µM
active: [24] < 0.01 µM | [53] 0.424 µM
